Legend:
[1] = tested on: Mixed-species biofilms of S. aureus and P. aeruginosa; assay: Mixed-species biofilm susceptibility, live/dead staining; format: cell-based; details: biofilms grown in collagen-coated plates for 24 hours
[2] = tested on: HaCaT migration; assay: HaCaT migration by ECIS (2D wound healing); format: cell-based, human
Protocol: Standard microdilution methods were used to determine minimum inhibitory concentration (MIC) and minimum bactericidal concentration (MBC) of test agents (peptides and peptide-mimics) against drug resistant Staphylococcus. aureus (TCH1516) and Pseudomonas. aeruginosa (PAO1). […] Cytotoxicity of test agents to human immortalized keratinocytes (HaCaTs) was assessed using 3-[4,5-dimethylthiazol-2-yl]-2,5-diphenyl tetrazolium bromide (MTT). Promotion of HaCaT migration by test agents was tested using electric cell-substrate impedance sensing (ECIS®), which induced 2D wound healing. The ability of test agents to stimulate angiogenesis was evaluated using matrigel-induced tube formation of human vein endothelial cells (HUVECs).

[3] = tested on: primary human MSC cells; assay: Wound healing array q-PCR gene expression in mesenchymal stem cells; format: cell-based; details: 8 hours treatment
Text: To determine the role of synthetic Ceragenins CSA-13, 44 and 90 in wound healing using mesenchymal stem cells (MSC), targeted mRNA panels from SABiosciences, and primary cells from Lonza were selected. Cells were purchased from Lonza.com and used fresh for each test using recommended media and culture conditions. After treatment, mRNA was isolated using Qiagen RNeasy Mini Kit®, and quantified using a NanoDrop 2000® by UV at 260 nm and 260/280 ratio for purity. cDNA was made using a First Strand Kit® from SABiosciences and processed for real time PCR using a kit from the same company for selected analysis of wound healing pathways. Results from q-PCR were uploaded to the SABiosciences site and to Ingenuity.com web site for analysis and pathway mapping. SABiosciences wound healing array plates (Cat# PAHS-121) and innate/acquired immune response plates (PAHS-052) were used. These arrays are fully validated when used as recommended. On day 1, primary human MSC cells were plated at 200,000 cells/well using 6-well plates with 3 ml of recommended media—hMSC Basal Medium+BulletKit (50 ml Growth Supplement, 10 ml L-Glutamine and 0.5 ml Gentamicin Sulfate Amphotercin-B) for 24 hours. Only early passages of cells were used, and never from frozen stock. On day 2, cells were treated with compounds dissolved in DMSO diluted 1:1000 or more to avoid effects of the solvent. Final testing concentration for CSA-13 was 5.0 μM. Treatment lasted 8 hours, and was followed by RNA isolation using QIAGEN RNeasy Mini Kit® (74104). RNA was measured at 260/280 nm using a NanoDrop 2000® and normalized to 2.4 ng per well, cDNA preparation was done using QIAGEN First Strand kit 330401. q-PCR was run as absolute quantification and threshold set at 0.1 units. Dendritic cells were plated at 500,000 cells/well using 24-well plate with 500 ul of Lonza LGM-3 Complete Growth Medium with and without compound. Treatment lasted 8 hours, and was followed by RNA isolation using QIAGEN RNeasy Mini Kit® (74104). RNA was measured at 260/280 nm using NanoDrop2000® and normalized to 2.4 ng per well, cDNA preparation was done using QIAGEN First Strand kit 330401. PCR was run as absolute quantification and threshold set at 0.1 units. For the wound healing array, strong upregulation of growth factors such as HB-EGF and cell migration factors such as MMP1 and CXCL2 were found, indicating a clear potential for CSA as a modulator of wound healing. Additional gene expression data is provided in Tables 1-3 for CSA-13, 44, and 90, respectively.

[4] = tested on: chronic non-healing oral cutaneous fistula; assay: Treatment of chronic non-healing oral cutaneous fistula in a horse; format: in vivo
Text: A horse with a chronic non-healing oral cutaneous fistula was first treated with two prior art treatments with no success. The first treatment was with an aqueous spray of Vetericyn (0.007% hypochlorite) for a period of 7 days. […]

[5] = tested on: torn right front shoulder wound; assay: Treatment of torn right front shoulder wound in a horse; format: in vivo; details: 0.04% solution in water sprayed twice a day
Protocol: This wound occurs commonly in horses and usually takes 3 to 6 months to heal. Typically this wound will result in a significant loss of muscle in the region. This wound was treated twice a day with a 0.04% solution of CSA-44 in water. The tissue treatment composition was applied by spraying sufficient composition to wet the entire surface of the wound.

[6] = tested on: laceration to left hind cannon region; assay: Treatment of laceration to left hind cannon region of a broodmare; format: in vivo; details: horse; 0.04% solution in water twice daily; no wrap
Protocol: A reining broodmare in Texas was involved in an accident resulting in a laceration to her left hind cannon region. The wound was 3 inches in length and 2 inches wide. The laceration extended all the way to the cannon bone, exposing the periosteum. This wound was also treated with a 0.04% solution of CSA-44 in water twice daily. No wrap was applied (i.e., no immobilization). The wound closed in 11 days with normal hair growth at 30 days. This type of wound would usually require aggressive wraps for 3 months with the possibility of other procedures being necessary for the excessive granulation tissue that commonly develops.

[7] = tested on: scratches (fungal infection of the lower extremities with secondary bacterial infection); assay: Treatment of extreme case of scratches in a horse; format: in vivo
Text: A horse with an extreme case of scratches was successfully healed using CSA. Scratches is a fungal infection of the lower extremities in horses. This infection usually results in not only a fungal but also a secondary bacterial infection. In this case, the horse developed severe and debilitating granulation tissue of the ankle resulting in poor mobility due to cracking and bleeding. […] The chronic infection persisted for over two years despite the multiple attempts to treat with an antimicrobial. Due to the debilitating wound the horse was slated for slaughter. […] Normal hair growth and tissue was present in 4 weeks.

[8] = tested on: fungal infection of the skin (summer itch); assay: Treatment of fungal infection of the skin (summer itch) in a show mare; format: in vivo; details: horse; 0.04% solution in water twice daily
Text: A show mare developed an uncontrollable fungal infection of the skin. This malady is commonly referred to as summer itch. A 0.04% solution of CSA-44 in water was used twice daily for 3 weeks resulting in complete regrowth of normal skin and hair. Normal treatment time periods for this problem usually range from 3 to 4 months.

## LL-37: a human peptide and positive control (LLGDFFRKSKEKIGKEFKRIVQRIKDFLRNLVPRTES; Antibacterial peptide LL-37; UniProt P49913 134-170, looked up)
[1]
  anti-biofilm activity: showed anti-biofilm activity
[2]
  induction of wound healing: induced wound healing

## CCCCCCCCNCCC[C@@H](C)[C@H]1CC[C@H]2[C@@H]3[C@H](OCCCN)C[C@@H]4C[C@H](OCCCN)CC[C@]4(C)[C@H]3C[C@H](OCCCN)[C@]12C [CSA-13]
[3]; CSA-13 at 5.0 μM
  Fold Regulation ANGPT1: −2.0046
  Fold Regulation CCL7: 1.6632
  Fold Regulation CSF2: −2.4867
  Fold Regulation CXCL1: 1.6181
  Fold Regulation CXCL2: 4.873
  Fold Regulation CXCL5: 2.0582
  Fold Regulation F3: −3.3945
  Fold Regulation F13A1: 2.0916
  Fold Regulation FGF2: −1.633
  Fold Regulation FGF10: 3.8659
  Fold Regulation HBEGF: 3.255
  Fold Regulation IL2: 1.865
  Fold Regulation IL4: −1.9944
  Fold Regulation IL6: 3.1692
  Fold Regulation IL10: −1.6166
  Fold Regulation ITGA2: 3.5659
  Fold Regulation ITGB3: −1.5243
  Fold Regulation MMP1: 4.4172
  Fold Regulation PLAT: −2.1487
  Fold Regulation PLAU: 1.7849
  Fold Regulation PLAUR: 1.6286
  Fold Regulation PTGS2: 3.3333
  Fold Regulation VEGFA: 1.7274
  Fold Regulation VTN: 2.0612

## Dermaseptin S1
[1]
  anti-biofilm activity: increased in anti-biofilm activity when shortened to the first 15 amino acids

## CCCCCCCCOC(=O)CC[C@@H](C)[C@H]1CC[C@H]2[C@@H]3[C@H](OC(=O)CCN)C[C@@H]4C[C@H](OC(=O)CCN)CC[C@]4(C)[C@H]3C[C@H](OC(=O)CCN)[C@]12C [CSA-44]
[4]; 0.04% CSA-44 in water sprayed once daily
  time to closure of the fistula and healthy tissue: 7 days
[4]; Vetericyn (0.007% hypochlorite) aqueous spray 7 days, Furacin Salve daily 5 days, 0.04% CSA-44 in water sprayed once daily 7 days
  outcome of wound treatment: successfully treated
[5]
  muscle loss after healing: without any apparent muscle loss
[5]; wound 4 x 6 inches, 3 inches deep
  time until wound closed and completely healed: 28 days
[6]
  time of normal hair growth: 30 days
  time until wound closed: 11 days
[7]; 0.04% in water sprayed twice daily
  time until normal hair growth and tissue present: 4 weeks
[7]; CSA-44 0.04% in water sprayed twice daily for four weeks, comparators before CSA
  outcome of wound treatment: successfully treated
[8]
  treatment time to complete regrowth of normal skin and hair: 3 weeks
[3]
  Fold Regulation ACTA2: −1.9377
  Fold Regulation ACTB: −1.7981
  Fold Regulation CCL2: −3.1925
  Fold Regulation CDH1: −2.7158
  Fold Regulation COL1A2: 1.5483
  Fold Regulation COL3A1: 1.7385
  Fold Regulation COL4A3: −2.4845
  Fold Regulation CTGF: −24.5295
  Fold Regulation CTSK: 1.6388
  Fold Regulation CTSL2: 1.7924
  Fold Regulation EGFR: 1.5364
  Fold Regulation FGF7: 4.84
  Fold Regulation HGF: 3.1098
  Fold Regulation IGF1: 1.6877
  Fold Regulation ITGB6: 1.6323
  Fold Regulation MMP9: 1.5543
  Fold Regulation SERPINE1: −2.9618
  Fold Regulation TGFBR3: −2.0462
  Fold Regulation TIMP1: 1.6126
  Fold Regulation WISP1: −1.9722
[3]; CSA-13 at 5.0 μM
  Fold Regulation ANGPT1: −2.0857
  Fold Regulation CCL7: 2.1961
  Fold Regulation CSF2: −1.8551
  Fold Regulation CXCL2: 14.3964
  Fold Regulation F13A1: 2.0963
  Fold Regulation FGF2: −1.6016
  Fold Regulation FGF10: 2.2811
  Fold Regulation HBEGF: 3.5463
  Fold Regulation IL2: 2.1928
  Fold Regulation IL6: 4.0387
  Fold Regulation IL10: −2.0128
  Fold Regulation ITGA2: 16.0648
  Fold Regulation ITGB3: −1.5802
  Fold Regulation MMP1: 68.9688
  Fold Regulation PLAT: −1.754
  Fold Regulation PLAU: 1.6131
  Fold Regulation PLAUR: 2.5454
  Fold Regulation PTGS2: 48.6907
  Fold Regulation VEGFA: 4.6052

## CCCCCN(CCCCC)CCC[C@@H](C)[C@H]1CC[C@H]2[C@@H]3[C@H](OCCCN)C[C@@H]4C[C@H](OCCCN)CC[C@]4(C)[C@H]3C[C@H](OCCCN)[C@]12C [CSA-90]
[3]
  Fold Regulation ACTA2: −2.5014
  Fold Regulation ACTB: −2.0745
  Fold Regulation CCL2: −1.5793
  Fold Regulation COL4A3: −1.6195
  Fold Regulation CTGF: −15.7171
  Fold Regulation CTSK: 1.5366
  Fold Regulation CTSL2: 1.6306
  Fold Regulation EGFR: 1.6212
  Fold Regulation FGF7: 5.1689
  Fold Regulation HGF: 2.3334
  Fold Regulation IFNG: 1.839
  Fold Regulation IGF1: 2.2724
  Fold Regulation ITGA3: −1.5127
  Fold Regulation ITGB6: 1.9381
  Fold Regulation MMP9: 2.5652
  Fold Regulation SERPINE1: −3.7307
  Fold Regulation TGFBR3: −1.5938
  Fold Regulation TIMP1: 1.8212
  Fold Regulation WISP1: −2.3543
[3]; CSA-13 at 5.0 μM
  Fold Regulation ANGPT1: −1.915
  Fold Regulation CCL7: 2.2874
  Fold Regulation CXCL1: 3.1083
  Fold Regulation CXCL2: 36.5878
  Fold Regulation F13A1: 2.1032
  Fold Regulation FGF10: 1.9842
  Fold Regulation HBEGF: 3.5988
  Fold Regulation IL2: 1.8522
  Fold Regulation IL6: 7.2299
  Fold Regulation IL10: −1.7382
  Fold Regulation ITGA2: 14.3637
  Fold Regulation ITGB3: −1.538
  Fold Regulation MMP1: 45.3753
  Fold Regulation PLAT: −2.14
  Fold Regulation PLAUR: 1.9924
  Fold Regulation PTGS2: 66.6189
  Fold Regulation VEGFA: 3.3257

Reference: patent US9603859B2, “Methods and products for increasing the rate of healing of tissue wounds” (BRIGHAM YOUNG UNIVERSITY, priority 2011, dated 2017)
